Assay: Plasma pharmacokinetics after single oral dose of Δ8-THCV in MCT oil (LC-MS/MS, non-compartmental analysis)
Format: in vivo, human
Settings: of 504 plasma samples from 15 participants after oral Δ8-THCV
Procedure: The study was a two-phase, dose-ranging, placebo-controlled trial in 21 healthy participants to assess the safety, tolerability, PK, and PD of an oral formulation of Δ8-THCV. A detailed description of the study was published elsewhere. The study product was a medium-chain triglyceride (MCT) oil oral formulation of Δ8-THCV at a concentration of 50 mg/mL. […] MCT oil was used as placebo.
Twenty-one participants were enrolled in the clinical study and plasma samples from 15 participants were sent to our laboratory for pharmacokinetic evaluation. Of these, 3 participants were enrolled in Phase 1, an unblinded, placebo-controlled, single ascending dose design and 12 were enrolled in Phase 2, a double-blind, randomized, placebo-controlled, within-participant crossover design. At each study session, participants received one of the following oral doses: placebo, 12.5 mg, 25 mg, 50 mg, 100 mg, and 200 mg of the aforementioned Δ8-THCV formulation in MCT. Study visits were separated by a washout period of a minimum of one week and maximum of 28 days. Participants entered the research facility the night before the session and received the study product in the morning after a standardized high-fat, high-calorie breakfast. PK blood samples included in this analysis were collected prior to dosing and 0.5, 1, 2, 4, 6, and 8 h after dose. Immediately following collection into K2EDTA tubes, blood samples were placed on wet ice, centrifuged, and plasma was immediately frozen at −80 °C until shipment to the bioanalytical laboratory (iC42 Clinical Research and Development, University of Colorado, Aurora, CO, USA) on dry ice.
Plasma samples were analyzed using a validated high-performance liquid chromatography–tandem mass spectrometry (LC-MS/MS) assay. The assay included Δ8-THCV and its main metabolites 11-OH-Δ8-THCV and Δ8-THCV-COOH, Δ9-THCV and its main metabolite Δ9-THCV-COOH, and Δ9-THC and Δ8-THC as well as their main metabolites (Figure 3). The complete list of analyzed compounds and a summary of the key performance parameters of the assay are presented in Appendix A and Table A1 and Table A2. […] For the PK analysis, concentrations below the lower limit of quantification were set to 0 ng/mL. PK parameters were calculated using non-compartmental analysis (Phoenix WinNonlin version 8.4., Certara, Princeton, NJ, USA). Statistical analysis was carried out using GraphPad Prism (version 10, Boston, MA, USA).

CCCCCc1cc(O)c2c(c1)OC(C)(C)[C@@H]1CC=C(C)CC21 (some centres unmarked) [Δ8-THC, Δ8-tetrahydrocannabinol, reference compound]
number of positive plasma samples: No positive samples

CCCCCc1cc(O)c2c(c1)OC(C)(C)[C@@H]1CCC(C)=CC21 (some centres unmarked) [Δ9-THC, Δ9-tetrahydrocannabinol, reference compound]
number of positive plasma samples: No positive samples

Reference: paper PMC11676667, “Pharmacokinetics of Oral Cannabinoid Δ8-Tetrahydrocannabivarin and Its Main Metabolites in Healthy Participants” (Pharmaceuticals, 2024)
